{"source": "ChEMBL document CHEMBL1145655", "about": "“Plant anticancer agents XXV. Constituents of Soulamea soulameoides” (1983)", "type_in_all_cases": "functional", "key": {"P388 [1]": {"test_system": "P388", "test": "Cytotoxicity against mouse P388 cells", "settings": "read-out: ED50 (the source's name)"}, "P388 [2]": {"test_system": "P388", "test": "In vivo antitumor activity against mouse P388 cells at 2.5 mg/kg relative to control"}, "P388 [3]": {"test_system": "P388", "test": "In vivo antitumor activity against mouse P388 cells at 5 mg/kg relative to control"}, "P388 [4]": {"test_system": "P388", "test": "In vivo antitumor activity against mouse P388 cells at 1.25 mg/kg relative to control"}, "KB": {"test_system": "KB", "test": "Cytotoxicity against human KB cells", "settings": "read-out: ED50 (the source's name)"}, "P388 [5]": {"test_system": "P388", "test": "In vivo antitumor activity against mouse P388 cells at 0.9 mg/kg relative to control"}, "P388 [6]": {"test_system": "P388", "test": "In vivo antitumor activity against mouse P388 cells at 7.5 mg/kg relative to control"}, "P388 [7]": {"test_system": "P388", "test": "In vivo antitumor activity against mouse P388 cells at 3.8 mg/kg relative to control"}, "P388 [8]": {"test_system": "P388", "test": "In vivo antitumor activity against mouse P388 cells at 1.9 mg/kg relative to control"}, "P388 [9]": {"test_system": "P388", "test": "In vivo antitumor activity against mouse P388 cells at 0.5 mg/kg relative to control"}, "P388 [10]": {"test_system": "P388", "test": "In vivo antitumor activity against mouse P388 cells at 0.25 mg/kg relative to control"}, "P388 [11]": {"test_system": "P388", "test": "In vivo antitumor activity against mouse P388 cells at 1 mg/kg relative to control"}, "P388 [12]": {"test_system": "P388", "test": "In vivo antitumor activity against mouse P388 cells at 2.46 mg/kg relative to control"}, "P388 [13]": {"test_system": "P388", "test": "In vivo antitumor activity against mouse P388 cells at 19.6 mg/kg relative to control"}, "P388 [14]": {"test_system": "P388", "test": "In vivo antitumor activity against mouse P388 cells at 9.83 mg/kg relative to control"}, "P388 [15]": {"test_system": "P388", "test": "In vivo antitumor activity against mouse P388 cells at 4.92 mg/kg relative to control"}}}
{"compound": "O=c1ccc2nccc3c4c(O)cccc4n1c23", "values": [{"measurement": "EC50", "setting": "P388 [1]", "value": 2.3, "unit": "µg/mL"}, {"measurement": "T/C", "setting": "P388 [2]", "value": 107, "unit": "%"}, {"measurement": "T/C", "setting": "P388 [3]", "value": 102, "unit": "%"}, {"measurement": "T/C", "setting": "P388 [4]", "value": 108, "unit": "%"}, {"measurement": "EC50", "setting": "KB", "value": 2.1, "unit": "µg/mL"}]}
{"compound": "COc1cc([C@H]2Oc3c(OC)cc4ccc(=O)oc4c3O[C@@H]2CO)ccc1O", "note": "[CLEOMISCOSIN A]", "values": [{"measurement": "EC50", "setting": "P388 [1]", "value": 2.8, "unit": "µg/mL"}, {"measurement": "EC50", "setting": "KB", "value": 4.9, "unit": "µg/mL"}]}
{"compound": "CC1=CC(=O)[C@@H](O)[C@]2(C)[C@H]3[C@]4(O)OC[C@]35[C@H]([C@@H](C)[C@H]4O)[C@@H](O)C(=O)O[C@@H]5C[C@@H]12", "note": "[GLAUCARUBOLONE]", "values": [{"measurement": "EC50", "setting": "P388 [1]", "value": 0.01, "unit": "µg/mL"}, {"measurement": "T/C", "setting": "P388 [3]", "value": 132, "unit": "%"}, {"measurement": "EC50", "setting": "KB", "value": 0.11, "unit": "µg/mL"}]}
{"compound": "CC(=O)O[C@H]1C(=O)O[C@@H]2C[C@H]3C(C)=CC(=O)[C@@H](O)[C@]3(C)[C@H]3[C@]4(O)OC[C@]32[C@@H]1[C@@H](C)[C@H]4O", "note": "[HOLACANTHONE]", "values": [{"measurement": "T/C", "setting": "P388 [5]", "value": 127, "unit": "%"}, {"measurement": "T/C", "setting": "P388 [6]", "value": 136, "unit": "%"}, {"measurement": "T/C", "setting": "P388 [7]", "value": 154, "unit": "%"}, {"measurement": "T/C", "setting": "P388 [8]", "value": 134, "unit": "%"}]}
{"compound": "COC(=O)[C@]12OC[C@]34[C@H]([C@@H](O)[C@@H]1O)[C@@]1(C)[C@H](O)C(=O)C=C(C)[C@@H]1C[C@H]3OC(=O)[C@H](OC(=O)CC(C)C)[C@@H]24", "note": "[ISOBRUCEIN A]", "values": [{"measurement": "EC50", "setting": "P388 [1]", "value": 0.001, "unit": "µg/mL"}, {"measurement": "T/C", "setting": "P388 [9]", "value": 145, "unit": "%"}, {"measurement": "T/C", "setting": "P388 [10]", "value": 138, "unit": "%"}, {"measurement": "T/C", "setting": "P388 [11]", "value": 155, "unit": "%"}, {"measurement": "EC50", "setting": "KB", "value": 0.003, "unit": "µg/mL"}]}
{"compound": "COC1=C(C)[C@@H]2CC(=O)O[C@@H]3C[C@H]4C(C)=C[C@H](O)C(=O)[C@]4(C)[C@@H](C1=O)[C@@]32C", "note": "[PICRASIN B]", "values": [{"measurement": "EC50", "setting": "P388 [1]", "value": "> 100", "unit": "µg/mL"}, {"measurement": "T/C", "setting": "P388 [12]", "value": 107, "unit": "%"}, {"measurement": "T/C", "setting": "P388 [13]", "value": 107, "unit": "%"}, {"measurement": "T/C", "setting": "P388 [14]", "value": 107, "unit": "%"}, {"measurement": "T/C", "setting": "P388 [15]", "value": 102, "unit": "%"}, {"measurement": "EC50", "setting": "KB", "value": "> 100", "unit": "µg/mL"}]}
